# Measurements reported in patent publication EP2338492A1, “Methods and compositions for the treatment of alzheimer” (Universidad del Pais Vasco, priority 2009, dated 2011).
# Read-outs that look alike come from different tables or passages of the source.
# Assays:
# Cortical neurons [1] = experiment: Cell viability and toxicity assay (LDH release); format: cell-based, Sprague-Dawley rat
# Text: (§1) Primary neuron cultures were obtained from the cortical lobes of E18 Sprague-Dawley rat embryos according to previously described procedures (Gottlieb M. et al. 2006. Neurobiol. Dis. 23 374-386.) Cells were resuspended in B27 Neurobasal medium plus 10% FBS (Sigma; St Louis, MO, USA) and then seeded onto poly-1-ornithine-coated glass coverslips at 1x10^5 cells per coverslip (12 mm in diameter) and 48-well plates at 1.5 x 10^5 per well. One day later, the medium was replaced by serum-free-, B27-supplemented Neurobasal medium. The cultures were essentially free of astrocytes and microglia; they were maintained at 37°C and 5% CO2. Cultures were used 8-10 days after plating.
# Antagonists and inhibitors were added to the cultures 30 min before the Aβ. Twenty four hours after drug application, cellular damage was estimated by measuring the level of lactate dehydrogenase released (LDH; Cytotox 96®, Promega, Madison, WI) from damaged cells into the culture media. Data were normalized to the activity of LDH released from vehicle-treated cells (100%) and calculated as a percentage of the control. Results were expressed as the means ± SEM of at least three independent experiments performed in triplicates.
# neurons = experiment: Measurement of mitochondrial Ca2+ (Rhod-2 AM); format: cell-based, Sprague-Dawley rat; conditions: for effect on Aβ-induced [Ca2+]mit rise: Aβ 5 µM together with NMDA receptor antagonist
# Text: as §1
# Rhod-2 AM (Molecular Probes, Invitrogen, Barcelona, Spain) was used to measure mitochondrial Ca^2+ according to the previous procedure with modifications (G. Hajnóczky, L.D. et al. 1995. Cell 82 415-424) Rhod2-AM has a net positive charge, which facilitates its sequestration into mitochondria due to membrane potential-driven uptake. Cells were loaded with 2 µM rhod2-AM for 6 hours. The residual cytosolic fraction of the dye was eliminated when the cells were kept in culture for an additional 18h after loading, whereas the mitochondrial dye fluorescence was maintained. Fluorescence images of rhod-2 were acquired using 550 nm excitation and 590 nm emission. The fluorescence of rhod-2 was not calibrated in terms of [Ca^2+]mit since it is not a ratiometric dye.
# Cortical neurons [2] = experiment: Measurement of intracellular reactive oxygen species (CM-H2DCFDA); format: cell-based, Sprague-Dawley rat; conditions: 2 hours
# Text: as §1
# Neurons were exposed to Aβ oligomers alone or with GluR antagonists as described. Cells were loaded with CM-H2DCFDA at 30 µM to assay the ROS levels. Calcein-AM (1 µM; Molecular Probes, Invitrogen, Barcelona, Spain) was used to quantify the number of cells within the reading field. Fluorescence was measured using a Synergy-HT fluorimeter (Bio-Tek Instruments Incl, Beverly, MA, USA; excitation at 485 nm, emission at 527 nm). All experiments (n≥3) were performed at least in quadruplicate and plotted as means ± SEM.
# Cortical neurons [3] = experiment: Analysis of mitochondrial membrane potential (JC-1); format: cell-based, Sprague-Dawley rat; conditions: Aβ 5 µM, 2 hours, in conjunction with GluR antagonist
# Text: as §1
# Briefly, after drug treatment, cells were loaded with 3 µM JC-1 for 15 min at 37°C and were washed with HBSS without phenol red by two times to eliminate the excess of dye. In the cytosol the monomeric form of this dye fluoresces green (excitation at 485 nm, emission at 527 nm), whereas within the mitochondrial matrix highly concentrated JC-1 forms aggregates that fluoresce red (excitation at 485 nm, emission at 590 nm). Both JC-1 monomers and aggregates were detectable using a Synergy-HT fluorimeter (Bio-Tek Instruments Incl, Beverly, MA, USA) and the changes in mitochondrial potential were calculated as the red/green ratio in each condition. All experiments (n≥3) were performed at least in triplicate and plotted as meant SEM.
# [4] = tested on: cultured cortical neurons; experiment: Ca2+ imaging in the cytosol (fura-2 AM); format: cell-based, Sprague-Dawley rat; conditions: for effect on Aβ-induced increase in [Ca2+]i: Aβ 5 µM, coapplication, NMDA antagonists n=70, voltage-gated Ca2+ channel inhibitors n=66
# Text: as §1
# [Ca^2+]¡ was determined according to the method described previously (G. Grynkiewicz, et al. 1985. J. Biol. Chem. 260:3440-3450). Neurons were loaded with fura-2 AM (5 µM; Molecular Probes, Invitrogen, Barcelona, Spain) in culture medium for 30 min at 37°C. Cells were washed in HBSS containing 20 mM HEPES, pH 7.4, 10 mM glucose, and 2 mM CaCl2 (incubation buffer) for 10 min at room temperature. Experiments were performed in a coverslip chamber continuously perfused with incubation buffer at 4 ml/min. The perfusion chamber was mounted on the stage of a inverted epifluorescence microscope (Zeiss Axiovert 35; Oberkochen, Germany) equipped with a 150 W xenon lamp Polychrome IV (T.I.L.L. Photonics, Martinsried, Germany) and a Plan Neofluar 40 x oil immersion objective (Zeiss). Cells were visualized with a high-resolution digital black/white CCD camera (ORCA C4742-80-12 AG; Hamamatsu Photonics Iberica). […] At the end of the assay, in situ calibration was performed with the successive addition of […] and 2 M Tris/50 mM EGTA, pH 8.5. Data were analyzed with Excel (Microsoft, Seattle, WA, USA) and Prism (GraphPad Software, San Diego, CA, USA) software.
# NMDA receptor = format: cell-based, Sprague-Dawley rat
# [5] = tested on: neurons from CA1 in organotypic slices; experiment: Measurement of Ca2+ in organotypic slices (fluo-4); format: cell-based; conditions: for [Ca2+]i in CA1 neurons of organotypic slices: kainate 1 mM (positive control)
# Text: (§2) Brain was removed and two hemispheres were separated in HBSS. Thalamus and midbrain was removed and each hemisphere sliced with a tissue chopper (McIlwan Tissue Chopper, Campden Instruments Ltd, Lafayette, IN, USA) in order to obtain coronal slices of 400 µm of thickness. Entorhinal cortex, in connection with hippocampus, were isolated under a dissection microscope, 2 slices plated on each Millicell CM culture inserts (Millipore Ibérica, Madrid, Spain) and maintained in Neurobasal medium supplemented with 0.5% B27, 25% horse serum, 25% HBSS and […] gentamycin at 37°C. Experiments were performed at 7-10 days in vitro.
# Ca^2+ levels in hippocampus were monitored by fluorescence microscopy using the Ca^2+ indicator fluo-4 (Molecular Probes, Invitrogen, Barcelona, Spain). Slices were incubated with fluo-4-AM (5 µM and 0.01 % of pluronic acid) for 45 min at 37 °C. Experiments were performed in a chamber continuously perfused with incubation buffer. Drugs were perfused by a micromanifold with a quartz/polyimide tube of 200 µm ID, attached to a micromanipulator in order to perfuse the drugs directly to the cells. The perfusion chamber was mounted on the stage of a Leica DMLFSA up-right microscope equipped with a 150 W xenon lamp Polychrome V (T.I.L.L. Photonics, Martinsried, Germany) and a HCX Apo 40 x water immersion objective (Leica). Cells were visualized with a CCD camera (EM CCD 9100; Hamamatsu Photonics Iberica, Barcelona, Spain).
# [6] = tested on: entorhinal cortex-hippocampus organotypic cultures; experiment: Cell death in organotypic cultures by propidium iodide uptake; format: cell-based; conditions: Aβ oligomers 100 nM, 4 days, co-incubation with MK801 10 µM or CNQX 30 µM
# Text: as §2
# Antagonists were added to cultures 30 min before the Aβ. Cell death in organotypic cultures was evaluated by cellular uptake of propidium iodide (PI). Slices were stained by adding 10 µM PI into the culture for 2 h at 37°C and washed with PBS by two times for 10 min. Slices were fixed with 4% PFA in PBS for 40 min at room temperature. Afterwards, the slices were excited with 510―560 nm light and the emitted fluorescence acquired at 610 nm using a rhodamine filter on an inverted fluorescence microscope (Cell Observer Z1, Zeiss). PI fluorescence images were captured with a Plan NeoFluar 2.5 x objective (Zeiss), using an EM CCD camera (Hamamatsu, C9100-13), controlled by Axio Vision program (Zeiss). Images were analyzed with the ImageJ analysis program (NIH, MD, USA) and neuronal cell death was expressed as the percentage of the mean gray value of each treatment vs. control.
# AMPA receptors = experiment: Whole-cell patch-clamp recording of Aβ-induced currents with Mg2+, no glycine, with or without cyclothiazide; format: cell-based, Sprague-Dawley rat; conditions: Aβ 1 µM + CTZ 100 µM; CNQX 30 µM; n=6
# Text: as §1
# Whole-cell recordings were performed at room temperature using the EPC-7 patch-clamp amplifier (HEKA Elektronik, Lambrecht, Germany). Currents were recorded at a holding membrane potential of -70 mV. Extracellular bath solution with a pH of 7.3 contained the following (in mM): 140 NaCl, 5 KCl, 2.5 CaCl2, 1 MgCl2, 10 HEPES and 10 mM glucose. Patch-clamp pipettes (3-5 MΩ) were filled with internal solution at a pH of 7.3 containing the following (in mM): 140 K-gluconate, 1 CaCl2, 2 MgCl2, 10 HEPES, 10 EGTA, 2 Mg-ATP, 0.2 Na-GTP.
# We then measured the effects of antagonists of NMDA or AMPA receptor on [Ca^2+]¡ in neurons exposed to Aβ plus CTZ (5 µM and 100 µM, respectively; Fig 2B).
# [7] = Aβ 5 µM, 24 h, AP5 100 µM, MK801 50 µM, memantine 50 µM, CNQX 30 µM, ZVAD-F 50 µM, DEVD 100 µM, DPQ 30 µM, added 30 min before Aβ
# [8] = Aβ 5 µM, in conjunction with GluR antagonist
compound,measurement,setting,value
"N[C@H](CCCP(=O)(O)O)C(=O)O [AP5, D-(-)-2-Amino-5-phosphonopentanoic acid]",effect on Aβ toxicity (Aβ-induced cell death),Cortical neurons [1]; [7],greatly attenuated
same,effect on Aβ-induced [Ca2+]mit rise,neurons,reduced
same,"ROS levels with respect to control (100%, non-treated cells)",Cortical neurons [2]; [8],102 ± 11%
same,"mitochondrial potential with respect to control (100%, non-treated cells)",Cortical neurons [3],90 ± 2%
same,"[Ca2+]i increase, % of control","[4]; Aβ 5 µM plus CTZ 100 µM, CNQX 30 µM (n=17), AP5 100 µM (n=17), both (n=18)",45 ± 2 % of control
same,effect on Aβ-induced increase in [Ca2+]i,[4],nearly abolished
same,effect on Aβ oligomer-induced inward current,NMDA receptor,reduced the peak of the currents
O=C1NCCc2c(OCCCCN3CCCCC3)cccc21 [DPQ],effect on Aβ toxicity (Aβ-induced cell death),Cortical neurons [1]; [7],reduced
Aβ oligomers: soluble Aβ1-42 oligomers prepared from Aβ1-42 (ABX) in Hams F-12 at 4°C for 24 h,[Ca2+]mit levels with respect to the control assay (incubation buffer),neurons; Aβ 5 µM,increased
same,"ROS levels with respect to control (100%, non-treated cells)",Cortical neurons [2]; Aβ 5 µM alone,124 ± 7.8%
same,[Ca2+]i in CA1 neurons of organotypic slices,[5]; Aβ 20 µM in the pipette,increased
C=C(C)[C@H]1CN[C@H](C(=O)O)[C@H]1CC(=O)O [Kainate],[Ca2+]i in CA1 neurons of organotypic slices,[5]; Aβ 20 µM in the pipette,increases
N#CC(C#N)=NNc1ccc(OC(F)(F)F)cc1 [FCCP],rhod-2 fluorescence (mitochondrial Ca2+),"neurons; FCCP 25 µM, internal control",rapid and transitory reduction of rhod-2 fluorescence
C[C@]12N[C@H](Cc3ccccc31)c1ccccc12 [MK801],effect on Aβ toxicity (Aβ-induced cell death),Cortical neurons [1],greatly attenuated
same,"PI uptake, fold as compared to control slices treated with antagonist alone",[6]; entorhinal cortex,1.2 ± 0.4 fold
same,"PI uptake, fold as compared to control slices treated with antagonist alone",[6]; hippocampus,0.9 ± 0.2 fold
same,effect on Aβ-induced [Ca2+]mit rise,neurons,reduced
same,"ROS levels with respect to control (100%, non-treated cells)",Cortical neurons [2]; [8],104 ± 3.4%
same,"mitochondrial potential with respect to control (100%, non-treated cells)",Cortical neurons [3],85 ± 3%
same,effect on Aβ-induced [Ca2+]i response in organotypic slices,[5],greatly reduced
same,effect on Aβ-induced increase in [Ca2+]i,[4],nearly abolished
"6-Cyano-7-nitroquinoxaline-2,3-dione [CNQX]",effect on Aβ toxicity (Aβ-induced cell death),Cortical neurons [1],greatly attenuated
same,"PI uptake, fold as compared to control slices treated with antagonist alone",[6]; entorhinal cortex,0.73 ± .01 fold
same,"PI uptake, fold as compared to control slices treated with antagonist alone",[6]; hippocampus,1.3 ± 0.4 fold
same,"ROS levels with respect to control (100%, non-treated cells)",Cortical neurons [2]; [8],106 ± 6.3%
same,"mitochondrial potential with respect to control (100%, non-treated cells)",Cortical neurons [3],86 ± 3%
same,effect on Aβ-induced [Ca2+]i response in organotypic slices,"[5]; Aβ 20 µM in the pipette, MK801 50 µM (n=9), CNQX 30 µM (n=43), both (n=50)",greatly reduced
same,effect on current activated by Aβ with CTZ,AMPA receptors,blocked
same,"[Ca2+]i increase, % of control",[4],50 ± 4 % of control
same,"Aβ-produced inward current, Aβ + CNQX vs 100 % Aβ alone",NMDA receptor,98.3 ± 6.8%
